This is an account of results in US20230012368A1 (Hoffmann-La Roche Inc., priority 2018, published 2023).

Each structure is given as a SMILES string. Where a name gives a salt, the structure may show the parent alone. Read-outs that look alike come from different tables or passages of the source.

The test system of this assay is Acinetobacter baumannii ATCC 17978. In words: Antimicrobial susceptibility testing: 90% growth inhibitory concentration (IC90) determination. Format: cell-based. To be noted: 90% growth inhibitory concentration, Acinetobacter baumannii ATCC17978, Iso-Sensitest broth, OD 600 nm over 16h, read-out: ATCC17978 IC90. Here is the method: Antimicrobial Susceptibility Testing:
90% Growth Inhibitory Concentration (IC90) Determination
The in vitro antimicrobial activity of the compounds was determined according to the following procedure:
The assay used a 10-points Iso-Sensitest broth medium to measure quantitatively the in vitro activity of the compounds against Acinetobacter baumannii ATCC 17978 and Acinetobacter baumannii ATCC 17961.
Stock compounds in DMSO were serially twofold diluted (e.g. range from 50 to 0.097 μM final concentration) in 384 wells microtiter plates and inoculated with 49 μl the bacterial suspension in Iso-Sensitest medium to have a final cell concentration of ˜5×10^(5) CFU/ml in a final volume/well of 50 ul/well. Microtiter plates were incubated at 35±2° C.
Bacterial cell growth was determined with the measurement of optical density at λ=600 nm each 20 minutes over a time course of 16h. Growth inhibition was calculated during the logarithmic growth of the bacterial cells with determination of the concentration inhibiting 50% (IC50) and 90% (IC90) of the growth.
Table 1 provides the 90% growth inhibitory concentrations (IC90) in micromoles per liter of the compounds of present invention obtained against the strain Acinetobacter baumannii ATCC17978 and Acinetobacter baumannii ATCC17961.

Setting [1] is: Acinetobacter baumannii, ATCC17978, 16 h.

As to `COc1ccc(-c2cnc3c(Nc4ccc(C(=O)N(C)CCc5ncc[nH]5)c(C)c4)nccn23)cc1F` [Example 112, 4-[[3-(3-fluoro-4-methoxy-phenyl)imidazo[1,2-a]pyrazin-8-yl]amino]-N-[2-(1H-imidazol-2-yl)ethyl]-N,2-dimethyl-benzamide], under setting [1], the IC90 amounted to 960 nM. The same measure, in the same setting: to `COc1ccc(-c2cnc3c(Nc4ccc(C(=O)NCCCNC(=O)[C@@H]5C[C@](C)(O)CN5)c(C)c4)nccn23)c(F)c1F` [Example 361, (2S,4S)-N-[3-[[4-[[3-(2,3-difluoro-4-methoxyphenyl)imidazo[1,2-a]pyrazin-8-yl]amino]-2-methylbenzoyl]amino]propyl]-4-hydroxy-4-methylpyrrolidine-2-carboxamide] belongs 80 nM. On to `CCc1cc(Nc2nccn3c(-c4ccc(OC)c(F)c4F)cnc23)ccc1C(=O)NC(CCN)C(F)(F)F` (stereo not drawn) [Example 320, N-(4-amino-1,1,1-trifluorobutan-2-yl)-4-[[3-(2,3-difluoro-4-methoxyphenyl)imidazo[1,2-a]pyrazin-8-yl]amino]-2-ethylbenzamide; hydrochloride], for which the IC90 worked out at 2700 nM.

Consider `CCc1cc(Nc2nccn3c(-c4ccc(OC(F)F)c(F)c4F)cnc23)ccc1C(=O)NCCCN` [Example 276, N-(3-aminopropyl)-4-[[3-[4-(difluoromethoxy)-2,3-difluorophenyl]imidazo[1,2-a]pyrazin-8-yl]amino]-2-ethylbenzamide;hydrochloride], for which, under setting [1], the IC90 came to 480 nM. For `CCc1cc(Nc2nccn3c(-c4ccc(Oc5ccccn5)c(F)c4F)cnc23)ccc1C(=O)N[C@@H](C)CNC(=O)[C@@H](N)CCNC(=N)N` [Example 456, N-[(1S)-2-[[(2S)-2-amino-4-guanidino-butanoyl]amino]-1-methyl-ethyl]-4-[[3-[2,3-difluoro-4-(2-pyridyloxy)phenyl]imidazo [1,2-a]pyrazin-8-yl]amino]-2-ethyl-benzamide; formic acid], under setting [1], the concentration for an effect of 90% (IC90) came out at 710 nM. On the same count and under the same terms, the result for `CCc1cc(Nc2nccn3c(-c4ccc(OC)c(F)c4F)cnc23)ccc1C(=O)NCCNC(=O)NCCN` [Example 339, N-[2-(2-aminoethylcarbamoylamino)ethyl]-4-[[3-(2,3-difluoro-4-methoxyphenyl)imidazo[1,2-a]pyrazin-8-yl]amino]-2-ethylbenzamide] reads 560 nM. On to `CCc1cc(Nc2nccn3c(-c4ccc(OC)c(F)c4F)cnc23)ccc1C(=O)N[C@H](C)C(=O)NCCNC` [Example 566, 4-[[3-(2,3-difluoro-4-methoxy-phenyl)imidazo[1,2-a]pyrazin-8-yl]amino]-2-ethyl-N-[(1R)-1-methyl-2-[2-(methylamino)ethylamino]-2-oxo-ethyl]benzamide], for which, under setting [1], the 90% effect concentration (IC90) was 950 nM.

As to `Cc1cc(Nc2nccn3c(-c4ccc(OCC#N)c(F)c4F)cnc23)ccc1C(=O)NCCNC(=O)[C@@H]1CCNC[C@@H]1O` [Example 451, (3R,4R)-N-[2-[[4-[[3-[4-(cyanomethoxy)-2,3-difluoro-phenyl]imidazo[1,2-a]pyrazin-8-yl]amino]-2-methyl-benzoyl]amino]ethyl]-3-hydroxy-piperidine-4-carboxamide; formic acid], the IC90 worked out at 760 nM.

In the case of `CCc1cc(Nc2nccn3c(-c4ccc(OC)c(F)c4F)cnc23)ccc1C(=O)NCC1CCN(C(=O)C2CCNCC2)CC1` [Example 546, 4-((3-(2,3-difluoro-4-methoxyphenyl)imidazo[1,2-a]pyrazin-8-yl)amino)-2-ethyl-N-((1-(piperidine-4-carbonyl)piperidin-4-yl)methyl)benzamide 2,2,2-trifluoroacetate], under setting [1], the concentration for an effect of 90% (IC90) amounted to 70 nM.

Take `CCc1cc(Nc2nccn3c(-c4ccc(OC(F)F)c(F)c4F)cnc23)ccc1C(=O)NCC1CCNC1` (stereo not drawn) [Example 550, 4-[[3-[4-(difluoromethoxy)-2,3-difluorophenyl]imidazo[1,2-a]pyrazin-8-yl]amino]-2-ethyl-N-(pyrrolidin-3-ylmethyl)benzamide; formic acid]: under setting [1], the IC90 was 150 nM.

For `CNC(=O)c1ccc(Nc2nccn3c(-c4ccc(OC(F)F)cc4)cnc23)cc1C(C)C` [Example 166, 4-[[3-[4-(difluoromethoxy)phenyl]imidazo[1,2-a]pyrazin-8-yl]amino]-2-isopropyl-N-methyl-benzamide], under setting [1], the IC90 is 980 nM. As for `CCc1cc(Nc2nccn3c(-c4ccc(OC)c(F)c4Cl)cnc23)ccc1C(=O)NCCCN` [Example 389, N-(3-aminopropyl)-4-[[3-(2-chloro-3-fluoro-4-methoxyphenyl)imidazo[1,2-a]pyrazin-8-yl]amino]-2-ethylbenzamide; hydrochloride], the IC90 is 500 nM. As for `CCc1cc(Nc2nccn3c(-c4ccc(Oc5ccccn5)c(F)c4F)cnc23)ccc1C(=O)NCCC(=O)N1CCN[C@H](CO)C1` [Example 475, 4-[[3-[2,3-difluoro-4-(2-pyridyloxy)phenyl]imidazo [1,2-a]pyrazin-8-yl]amino]-2-ethyl-N-[3-[(3S)-3-(hydroxymethyl)piperazin-1-yl]-3-oxo-propyl]benzamide], the IC90 under setting [1] stood at 410 nM. For the compound `CCc1cc(Nc2nccn3c(-c4ccc(OC)c(F)c4F)cnc23)ccc1C(=O)NCC(N)CO` (stereo not drawn) [Example 525, N-(2-amino-3-hydroxypropyl)-4-((3-(2,3-difluoro-4-methoxyphenyl)imidazo[1,2-a]pyrazin-8-yl)amino)-2-ethylbenzamide hydrochloride], under setting [1], the IC90 was 350 nM. Still for that read-out and setting: to `CCc1cc(Nc2nccn3c(-c4ccc(OC)c(F)c4F)cnc23)ccc1C(=O)N[C@H](C)CCNC(=O)[C@@H](N)CCCNC(=N)N` [Example 375, N-[(2R)-4-[[(2S)-2-amino-5-carbamimidamidopentanoyl]amino]butan-2-yl]-4-[[3-(2,3-difluoro-4-methoxyphenyl)imidazo[1,2-a]pyrazin-8-yl]amino]-2-ethylbenzamide] belongs 190 nM. Same read-out and setting: to `CCc1cc(Nc2nccn3c(-c4ccc(OC)c(F)c4F)cnc23)ccc1C(=O)NCC1CN(C(=O)CN)C1` [Example 532, N-[[1-(2-aminoacetyl)azetidin-3-yl]methyl]-4-[[3-(2,3-difluoro-4-methoxy-phenyl)imidazo[1,2-a]pyrazin-8-yl]amino]-2-ethyl-benzamide; formic acid] belongs 61 nM.

Regarding `CCc1cc(Nc2nccn3c(-c4ccc(OC)c(F)c4F)cnc23)ccc1C(=O)NC[C@@H]1CCNC1` [Example 529, (R)-4-((3-(2,3-difluoro-4-methoxyphenyl)imidazo[1,2-a]pyrazin-8-yl)amino)-2-ethyl-N-(pyrrolidin-3-ylmethyl)benzamide hydrochloride], the IC90 under setting [1] was found to be 110 nM. In the case of `CCc1cc(Nc2nccn3c(-c4ccc(OC)c(F)c4F)cnc23)ccc1C(=O)NCCCCCCN` [Example 494, N-(6-aminohexyl)-4-((3-(2,3-difluoro-4-methoxyphenyl)imidazo[1,2-a]pyrazin-8-yl)amino)-2-ethylbenzamide hydrochloride], the IC90 under setting [1] was determined as 37 nM.

`COc1ccc(-c2cnc3c(Nc4ccc(C(=O)NCCCCCN5CCNCC5)c(C)c4)nccn23)cc1F` [Example 272, 4-[[3-(3-fluoro-4-methoxyphenyl)imidazo[1,2-a]pyrazin-8-yl]amino]-2-methyl-N-(5-piperazin-1-ylpentyl)benzamide;hydrochlo-ride]: the IC90 under setting [1] came out at 120 nM.

As for `CCc1cc(Nc2nccn3c(-c4ccc(OCC#N)c(F)c4F)cnc23)ccc1C(=O)NCCNC(=O)[C@@H](N)CCN` [Example 144, 4-[[3-[4-(cyanomethoxy)-2,3-difluoro-phenyl]imidazo[1,2-a]pyrazin-8-yl]amino]-N-[2-[[(2S)-2,4-diaminobutanoyl]amino]ethyl]-2-ethyl-benzamide formate], the IC90 under setting [1] was 90 nM. For the compound `CCc1cc(Nc2nccn3c(-c4ccc(Oc5ncccn5)c(F)c4F)cnc23)ccc1C(=O)NCCNC(=O)[C@@H](N)CCNC(=N)N` [Example 438, N-[2-[[(2S)-2-amino-4-guanidino-butanoyl]amino]ethyl]-4-[[3-(2,3-difluoro-4-pyrimidin-2-yloxy-phenyl)imidazo[1,2-a]pyrazin-8-yl]amino]-2-ethyl-benzamide; formic acid], the concentration for an effect of 90% (IC90) came out at 550 nM. With `CCc1cc(Nc2nccn3c(-c4ccc(Oc5ncccn5)c(F)c4F)cnc23)ccc1C(=O)NCCNC(=O)CCN` [Example 431, N-[2-(3-aminopropanoylamino)ethyl]-4-[[3-(2,3-difluoro-4-pyrimidin-2-yloxy-phenyl)imidazo[1,2-a]pyrazin-8-yl]amino]-2-ethyl-benzamide; formic acid], under setting [1], the IC90 turned out to be 530 nM.

For `CCc1cc(Nc2nccn3c(-c4ccc(Oc5ccc(F)cn5)c(F)c4F)cnc23)ccc1C(=O)NCCNC(=O)[C@H](N)CCNC(=N)N` [Example 429, N-[2-[[(2R)-2-amino-4-guanidino-butanoyl]amino]ethyl]-4-[[3-[2,3-difluoro-4-[(5-fluoro-2-pyridyl)oxy]phenyl]imidazo [1,2-a]pyrazin-8-yl]amino]-2-ethyl-benzamide; formic acid], the IC90 under setting [1] stood at 620 nM. With `CCc1cc(Nc2nccn3c(-c4ccc(OC(F)F)c(F)c4F)cnc23)ccc1C(=O)NCC1(O)CCNC1` (stereo not drawn) [Example 311, 4-[[3-[4-(difluoromethoxy)-2,3-difluorophenyl]imidazo[1,2-a]pyrazin-8-yl]amino]-2-ethyl-N-[(3-hydroxypyrrolidin-3-yl)methyl]benzamide;hydro-chloride], the IC90 under setting [1] came to 800 nM.
